PubChem BioAssay AID330 (DTP/NCI, 2004)
Where “and” joins values, the source holds several entries; their conditions need not be identical. Equal values may be shown once. Inconclusive results and toxic doses are left out.

Tested on: P388 leukemia ip, CD2F1 mice, survival T/C
Assay: NCI In Vivo Anticancer Drug Screen. Data for tumor model P388 Leukemia (intraperitoneal) in CD2F1 (CDF1) mice
Details: endpoint: median survival time, higher = longer survival
Method in brief: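 Mice carrying the transplanted tumor received test compound or vehicle. Survival was recorded in each group, and the value is the treated-group measurement divided by that of the vehicle-treated control group.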

[1] = dose: 100.0 mg/kg/injection, schedule: Q04DX003 (ip), vehicle: Klucel (hydroxypropylcellulose) (HPC)
[2] = dose: 200.0 mg/kg/injection, schedule: Q04DX003 (ip), vehicle: Klucel (hydroxypropylcellulose) (HPC)
[3] = dose: 50.0 mg/kg/injection, schedule: Q01DX009 (ip), vehicle: saline with Tween-80
[4] = dose: 100.0 mg/kg/injection, schedule: Q01DX009 (ip), vehicle: saline with Tween-80
[5] = dose: 200.0 mg/kg/injection, schedule: Q01DX009 (ip), vehicle: saline with Tween-80
[6] = dose: 100.0 mg/kg/injection, schedule: Q01DX009 (ip), vehicle: Klucel (hydroxypropylcellulose) (HPC)
[7] = dose: 200.0 mg/kg/injection, schedule: Q01DX009 (ip), vehicle: Klucel (hydroxypropylcellulose) (HPC)
[8] = dose: 60.0 mg/kg/injection, schedule: Q01DX005 (ip), vehicle: saline with Tween-80
[9] = dose: 120.0 mg/kg/injection, schedule: Q01DX005 (ip), vehicle: saline with Tween-80
[10] = dose: 240.0 mg/kg/injection, schedule: Q01DX005 (ip), vehicle: saline with Tween-80
[11] = dose: 50.0 mg/kg/injection, schedule: Q01DX009 (ip), vehicle: Klucel (hydroxypropylcellulose) (HPC)

## COC(=O)CCCOc1ccc(N(CCCl)CCCl)cc1
[1]
  T/C: 194 % of control
[2]
  T/C: 223 % of control

## COc1ccc(CCC(=O)O)c(C(CC(=O)O)C(=O)O)c1OS(=O)(=O)c1ccc(C)cc1 (configuration not stated)
[3]
  T/C: 94 % of control
[4]
  T/C: 105 % of control
[5]
  T/C: 97 % of control

## NC(=S)N1CCCC1
dose: 25.0 mg/kg/injection, schedule: Q01DX009 (ip), vehicle: saline with Tween-80
  T/C: 95 % of control
[3]
  T/C: 93 % of control
[4]
  T/C: 98 % of control
[5]
  T/C: 89 % of control

## COc1cccc(-c2nsc(=O)o2)c1
[6]
  T/C: 108 % of control
[7]
  T/C: 109 % of control

## CSc1nc(C)c(C(=O)CCN2CCN(c3ccccn3)CC2)s1
dose: 60.0 mg/kg/injection, schedule: Q01DX005 (ip), vehicle: saline
  T/C: 104 % of control
dose: 120.0 mg/kg/injection, schedule: Q01DX005 (ip), vehicle: saline
  T/C: 113 % of control

## O=c1ccnc2ccccn12
[8]
  T/C: 94 % of control
[9]
  T/C: 107 % of control
[10]
  T/C: 100 % of control

## Nc1nccc(NCCCCCCNc2ccnc(N)n2)n1
dose: 12.5 mg/kg/injection, schedule: Q04DX002 (ip), vehicle: saline
  T/C: 104 % of control and 108 % of control
dose: 25.0 mg/kg/injection, schedule: Q04DX002 (ip), vehicle: saline
  T/C: 106 % of control and 114 % of control
dose: 50.0 mg/kg/injection, schedule: Q04DX002 (ip), vehicle: saline
  T/C: 105 % of control and 114 % of control
dose: 100.0 mg/kg/injection, schedule: Q04DX002 (ip), vehicle: saline
  T/C: 114 % of control and 119 % of control
dose: 200.0 mg/kg/injection, schedule: Q04DX002 (ip), vehicle: saline
  T/C: 116 % of control and 123 % of control

## CCN(CC)C(=O)c1cc(=O)c(C)c2oc3c(C)c(O)c(N)c(C(=O)N(CC)CC)c3nc1-2
dose: 60.0 mg/kg/injection, schedule: Q01DX005 (ip), vehicle: Klucel (hydroxypropylcellulose) (HPC)
  T/C: 92 % of control
dose: 120.0 mg/kg/injection, schedule: Q01DX005 (ip), vehicle: Klucel (hydroxypropylcellulose) (HPC)
  T/C: 87 % of control
dose: 240.0 mg/kg/injection, schedule: Q01DX005 (ip), vehicle: Klucel (hydroxypropylcellulose) (HPC)
  T/C: 86 % of control

## C=C(COC(C)=O)CC(CC(=C)CC(OC(C)=O)Sc1ccccc1)S(=O)(=O)c1ccccc1 (configuration not stated)
dose: 60.0 mg/kg/injection, schedule: Q01DX005 (ip), vehicle: saline + Tween-80 + alcohol
  T/C: 106 % of control
dose: 120.0 mg/kg/injection, schedule: Q01DX005 (ip), vehicle: saline + Tween-80 + alcohol
  T/C: 104 % of control
dose: 240.0 mg/kg/injection, schedule: Q01DX005 (ip), vehicle: saline + Tween-80 + alcohol
  T/C: 104 % of control

## CN1c2ccc(C=O)cc2Sc2cc(C=O)ccc21
[8]
  T/C: 91 % of control
[9]
  T/C: 91 % of control
[10]
  T/C: 90 % of control

## C=CCC1(C(C)C(O)c2cc(OC)c(OC)c(OC)c2)CC(OC)C=CC1=O (configuration not stated)
dose: 4.0 mg/kg/injection, schedule: Q01DX009 (ip), vehicle: olive oil, sesame oil, peanut oil
  T/C: 116 % of control
dose: 8.0 mg/kg/injection, schedule: Q01DX009 (ip), vehicle: olive oil, sesame oil, peanut oil
  T/C: 111 % of control
dose: 16.0 mg/kg/injection, schedule: Q01DX009 (ip), vehicle: olive oil, sesame oil, peanut oil
  T/C: 111 % of control

## CN(N=O)C(=O)NNC(=O)N(C)N=O
dose: 15.0 mg/kg/injection, schedule: Q04DX003 (ip), vehicle: saline with Tween-80
  T/C: 105 % of control
dose: 30.0 mg/kg/injection, schedule: Q01DX009 (ip), vehicle: saline with Tween-80
  T/C: 100 % of control
dose: 30.0 mg/kg/injection, schedule: Q04DX003 (ip), vehicle: saline with Tween-80
  T/C: 110 % of control
dose: 39.6 mg/kg/injection, schedule: Q04DX003 (ip), vehicle: saline with Tween-80
  T/C: 109 % of control
dose: 60.0 mg/kg/injection, schedule: Q04DX003 (ip), vehicle: saline with Tween-80
  T/C: 113 % of control

## O=C1Cc2ccccc2N1C(=O)c1ccc(F)cc1
dose: 100.0 mg/kg/injection, schedule: Q01DX001 (ip), vehicle: Klucel (hydroxypropylcellulose) (HPC)
  T/C: 102 % of control
dose: 200.0 mg/kg/injection, schedule: Q01DX001 (ip), vehicle: Klucel (hydroxypropylcellulose) (HPC)
  T/C: 92 % of control
dose: 400.0 mg/kg/injection, schedule: Q01DX001 (ip), vehicle: Klucel (hydroxypropylcellulose) (HPC)
  T/C: 95 % of control

## CN(C)CCCNc1c2ccccc2nc2cccc([N+](=O)[O-])c12
dose: 0.03 mg/kg/injection, schedule: Q01DX009 (ip), vehicle: water
  T/C: 102 % of control and 108 % of control
dose: 0.06 mg/kg/injection, schedule: Q01DX009 (ip), vehicle: water
  T/C: 107 % of control and 115 % of control (2×)
dose: 0.13 mg/kg/injection, schedule: Q01DX009 (ip), vehicle: water
  T/C: 115 % of control and 120 % of control and 123 % of control
dose: 0.25 mg/kg/injection, schedule: Q01DX009 (ip), vehicle: water
  T/C: 107 % of control and 96 % of control
dose: 8.0 micrograms/kg/injection, schedule: Q01DX009 (ip), vehicle: saline
  T/C: 100 % of control
dose: 16.0 micrograms/kg/injection, schedule: Q01DX009 (ip), vehicle: saline
  T/C: 119 % of control
dose: 32.0 micrograms/kg/injection, schedule: Q01DX009 (ip), vehicle: saline
  T/C: 100 % of control
dose: 63.0 micrograms/kg/injection, schedule: Q01DX009 (ip), vehicle: saline
  T/C: 123 % of control
dose: 125.0 micrograms/kg/injection, schedule: Q01DX009 (ip), vehicle: saline
  T/C: 117 % of control
dose: 250.0 micrograms/kg/injection, schedule: Q01DX009 (ip), vehicle: saline
  T/C: 116 % of control

## c1ccc2c(c1)C(=NCCCN1CCCCCC1)c1cccn1-2
dose: 50.0 mg/kg/injection, schedule: Q01DX005 (ip), vehicle: saline with Tween-80
  T/C: 100 % of control
dose: 100.0 mg/kg/injection, schedule: Q01DX005 (ip), vehicle: saline with Tween-80
  T/C: 100 % of control
dose: 200.0 mg/kg/injection, schedule: Q01DX005 (ip), vehicle: saline with Tween-80
  T/C: 100 % of control

## CCCCCCCC(=O)NCCCC(C)Nc1cc(OC)cc2cccnc12 (configuration not stated)
[8]
  T/C: 106 % of control
[9]
  T/C: 99 % of control

## CCCCCCN(CCCCCC)P(=O)(N1CC1)N1CC1
dose: 12.5 mg/kg/injection, schedule: Q01DX009 (ip), vehicle: saline
  T/C: 118 % of control
dose: 25.0 mg/kg/injection, schedule: Q04DX003 (ip), vehicle: saline with Tween-80
  T/C: 113 % of control
dose: 100.0 mg/kg/injection, schedule: Q04DX003 (ip), vehicle: saline with Tween-80
  T/C: 100 % of control

## O=c1[nH]c(=S)[nH]c2nccnc12
[1]
  T/C: 105 % of control
[2]
  T/C: 118 % of control
dose: 400.0 mg/kg/injection, schedule: Q04DX003 (ip), vehicle: Klucel (hydroxypropylcellulose) (HPC)
  T/C: 112 % of control

## CCOC(=O)c1ccc(N=NN(C)CC2OC3OC(C)(C)OC3C2OC)cc1 (configuration not stated)
dose: 100.0 mg/kg/injection, schedule: Q04DX002 (ip), vehicle: saline with Tween-80
  T/C: 98 % of control
dose: 200.0 mg/kg/injection, schedule: Q04DX002 (ip), vehicle: saline with Tween-80
  T/C: 98 % of control
dose: 400.0 mg/kg/injection, schedule: Q04DX002 (ip), vehicle: saline with Tween-80
  T/C: 102 % of control

## Cn1cnc([N+](=O)[O-])c1SCC(=O)O
[11]
  T/C: 108 % of control
[6]
  T/C: 122 % of control
[7]
  T/C: 96 % of control
dose: 400.0 mg/kg/injection, schedule: Q01DX009 (ip), vehicle: Klucel (hydroxypropylcellulose) (HPC)
  T/C: 103 % of control

## Cc1cc(C)nc(/N=C/c2ccccc2O)c1
dose: 50.0 mg/kg/injection, schedule: Q01DX009 (ip), vehicle: saline
  T/C: 98 % of control
dose: 100.0 mg/kg/injection, schedule: Q01DX009 (ip), vehicle: saline
  T/C: 88 % of control
dose: 200.0 mg/kg/injection, schedule: Q01DX009 (ip), vehicle: saline
  T/C: 91 % of control

## CCNC(=O)/N=c1/sc([N+](=O)[O-])cn1CC(=O)N1CCCCC1
dose: 100.0 mg/kg/injection, schedule: Q04DX002 (ip), vehicle: Klucel (hydroxypropylcellulose) (HPC)
  T/C: 100 % of control
dose: 200.0 mg/kg/injection, schedule: Q04DX002 (ip), vehicle: Klucel (hydroxypropylcellulose) (HPC)
  T/C: 99 % of control
dose: 400.0 mg/kg/injection, schedule: Q04DX002 (ip), vehicle: Klucel (hydroxypropylcellulose) (HPC)
  T/C: 98 % of control

## CN(C)c1cc(=O)c2c(ccc3ccccc32)o1
[3]
  T/C: 92 % of control
[4]
  T/C: 95 % of control
[5]
  T/C: 95 % of control

## O=C(CCCl)Nc1cccc(CCC(=O)c2ccccc2NC(=O)CCCl)c1
[8]
  T/C: 89 % of control
[9]
  T/C: 93 % of control
[10]
  T/C: 88 % of control

## O=C(c1ccccc1)C(O)NC(=S)c1cccnc1 (configuration not stated)
[3]
  T/C: 106 % of control
[4]
  T/C: 107 % of control
[5]
  T/C: 116 % of control

## CS(=O)(=O)Oc1ccc([N+](=O)[O-])cc1
[11]
  T/C: 98 % of control
[6]
  T/C: 107 % of control
[7]
  T/C: 114 % of control
